Data: article PMC8429736, “Pharmacological characterization of mutant huntingtin aggregate-directed PET imaging tracer candidates” (Scientific Reports, 2021)
Like-named read-outs stand apart in the source and are kept apart here.

Columns and labels:
[1] = target: T1, Exon1-Q46 aggregates (Homo sapiens, UniProt P42858, INS38QQQQQQQQQQQQQQQQQQQQQQQQQ); assay: RBA competition binding against tritiated 3, Exon1-Q46 aggregates
T1 construct: MBP-HTT(1-89)Q46-His(6x); MBP (N, cleaved yes); made in house; host or cells: E. coli BL21 (DE3)
T1 sequence (P42858 with tags, fused parts or gaps with the stated changes): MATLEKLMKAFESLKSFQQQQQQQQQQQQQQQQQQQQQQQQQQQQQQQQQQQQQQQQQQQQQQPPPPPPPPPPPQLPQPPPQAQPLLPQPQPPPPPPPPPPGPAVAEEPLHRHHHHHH
Procedure: For the competition assay format, Q46 or Exon1-Q46 aggregates at 1 µM (sample volume 150 µL) were pre-incubated in a 96-well round bottom plate (Corning, #3365) for 20 min with test compounds at room temperature (assay buffer 50 mM Tris–HCl pH 8.0, 150 mM NaCl). […] Radioligand 3 at 0.3 nM was added and incubated for 1 h at 37 °C.
Samples were then transferred onto a 96-well GF/B filter plate (Perkin Elmer, #6005177) using a Filtermate Harvester, aspirated by vacuum and wells washed twice with 200 µL PBS. After drying the filter plates for 1 h at 55 °C the back of the plate was sealed with aluminum cover and 30 µL of scintillation fluid (Perkin Elmer, #6013641) per well was added. The tops of the plates were sealed, and the plates were incubated for 15 min in the dark and counted in a TopCount or MicroBeta2 reader (both Perkin Elmer).
Raw sample data collected as counts per minute (cpm) were normalized towards assay controls: 0% inhibition = radioligand + protein + vehicle, 100% inhibition = radioligand + protein + 1 µM unlabeled ligand. A 4-parameter […] fit was applied to generate IC50 values.

[2] = tested on: mHTT aggregates in zQ175 brain homogenates; assay: RAFTA with zQ175 brain homogenates; format: binding, mouse
Procedure: For RAFTA and MSD assays, mouse brains were transferred to lysis tubes and individually homogenized 1:3 (w/v) in brain lysis buffer (10 mM Tris pH 7.4, 800 mM NaCl, 1 mM EDTA, 1 × Protease inhibitor, 10% Sucrose, 0.5% Triton X-100, Benzonase (1:1000)) using a pre-cooled MP FastPrep homogenizer (3 × 30 s, 6.0 m/sec). Crude homogenates were transferred to LoBind reaction tubes (Eppendorf) and centrifuged at 15,700×g for 10 min at 4 °C. The supernatant was collected, and the pellet fraction was resuspended in brain lysis buffer. Generally, a minimum of three whole brains were lysed and fractions were pooled after homogenization to reduce assay variability due to inter-animal variability.
The total protein concentration of samples was determined by BCA assay (ThermoFisher Scientific, #23227), according to standard procedures and protein concentrations were adjusted to 5–10 mg/mL in brain lysis buffer. […]
For RAFTA analysis, frozen mouse brain homogenates were thawed on the day of the experiment and diluted with assay buffer (50 mM Tris pH 8.0; 150 mM NaCl) to a concentration of 500 µg/mL total protein. […] In experiments where non-specific binding (NSB) was determined, the incubation medium contained 5 µM of non-labeled (cold) CHDI-180, which was added prior to the addition of radioligand and incubated for 20 min at room temperature. […]

[3] = tested on: beta amyloid/tau aggregates in post-mortem AD patient brain homogenates; assay: ADbh RBA competition format; format: binding, human; conditions: radioligand 4; compound 1 µM
Procedure: For RBA in vitro binding assays, brain tissue was sliced (50 µm), weighed and homogenized in PBS (Gibco, 14190-94), 0.1% BSA with a glass pestle (10 strokes) at a concentration of 12–15 mg wet tissue per mL buffer. The crude homogenate concentration was then adjusted to 10 mg/mL (wet tissue) and stored as single-use aliquots at -80 °C.
RBA experiments using Alzheimer’s disease brain homogenates (ADbh RBA) followed the same assay principle as the RBA with recombinant HTT protein, using 0.68 mg/mL homogenate (100 µg per well with 150 µL assay volume) in assay buffer PBS, 0.01% Pluronic F127 (Sigma. P2443) and 1% DMSO after compound addition. […] Incubation at room temperature was conducted for 20 min after compound addition and for 5 h after radioligand addition. For the competition format, raw cpm were normalized towards assay controls as before, to obtain inhibition between 0 and 100%. For saturation binding, raw cpm were converted into nM as before, using a calibration line of total added radioligand, and normalized to mg of added homogenate to finally obtain pmol/mg.

[4] = target: beta amyloid plaques (6E10 antibody) (Homo sapiens, UniProt P05067); assay: HR ARG co-registration with 6E10 antibody, human AD brain sections; format: binding; conditions: 10 nM CHDI-180, 10 nM CHDI-626, 0.1 nM PiB, 1 nM T808
Chain of beta amyloid plaques (6E10 antibody) (P05067 672-713 limits assumed): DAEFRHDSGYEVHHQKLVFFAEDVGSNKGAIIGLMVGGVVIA

Structure (SMILES): COc1ccc(COc2ccc3oc(-c4ccc(=O)n(C)n4)nc3c2)nc1 [CHDI-180]
- IC50 ([1]; 0.3 nM tritiated 3 as radioligand, 1 µM aggregates, mean ± SD, read-out: IC50 Exon1-Q46): 1.3 ± 0.7 nM
- Hill Slope ([1]; against tritiated 3, representative single experiment (Fig. 2B)): 0.89
- IC50 ([1]; against tritiated 3, representative single experiment (Fig. 2B), read-out: IC50): 1.4 nM
- signal in pelleted material vs age-matched WT mice ([2]; 3 nM radioligand, cortices, striata or hippocampi of 9-month-old HET zQ175): > tenfold
- binding in brain homogenates with age ([2]; 3-, 6-, 9-, 12-month-old HOM zQ175): age-dependent increase
- inhibition at 1 µM [3]: ~ 50%
- co-registration with 6E10-positive beta amyloid plaques [4]: low density binding
